# Experiments:
# Assay in all cases: Post-emergence efficacy of compounds of Formula (I) (B1), glasshouse
# Format in all cases: in vivo
# [1] = tested on: Amaranthus palmeri (AMAPA); conditions: Amaranthus palmeri, post-emergence, 312 h; Application Rate 500 g/Ha; evaluated after 13 days; read-out: Control of AMAPA after post-emergence application (100=total damage to plant; 0=no damage to plant)
# Description: (§1) Seeds of a variety of test species were sown in standard Iaom-based soil in pots:— Ipomoea hederacea (IPOHE), Euphorbia heterophylla (EPHHL), Chenopodium album (CHEAL), Amaranthus palmeri (AMAPA), Lolium perenne (LOLPE), Digitaria sanguinalis (DIGSA), Eleusine indica (ELEIN), Echinochloa crus-galli (ECHCG), Setaria faberi (SETFA). After cultivation for 14 days (post-emergence) under controlled conditions in a glasshouse (at 24/16° C., day/night; 14 hours light; 65% humidity), the plants were sprayed with an aqueous spray solution derived from the dissolution of the technical active ingredient Formula (I) in a small amount of acetone and a special solvent and emulsifier mixture referred to as IF50 (11.12% Emulsogen EL360 TM+44.44% N-methylpyrrolidone+44.44% Dowanol DPM glycol ether), to create a 50 g/I solution which was then diluted to required concentration using 0.25% or 1% Empicol ESC70 (Sodium lauryl ether sulphate)+1% ammonium sulphate as diluent. The delivery of the aqueous spray solution was via a laboratory track sprayer which delivered the aqueous spray composition at a rate of 200 litres per hectare, using a flat fan nozzle (Teejet 11002VS) and an application volume of 200 litre/ha (at 2 bar).
# (§2) The test plants were then grown in a glasshouse under controlled conditions (at 24/16° C., day/night; 14 hours light; 65% humidity) and watered twice daily. After 13 days the test was evaluated (100=total damage to plant; 0=no damage to plant).
# Eleusine indica (ELEIN) = conditions: Application Rate 500 g/Ha, evaluated after 13 days; for pest or weed control at 500 g/ha: Eleusine indica, post-emergence, 312 h, read-out: Control of ELEIN after post-emergence application (100=total damage to plant; 0=no damage to plant)
# Description: as §1, §2
# [2] = tested on: Euphorbia heterophylla (EPHHL); conditions: Application Rate 500 g/Ha, evaluated after 13 days; for pest or weed control at 500 g/ha: Euphorbia heterophylla, post-emergence, 312 h, read-out: Control of EPHHL after post-emergence application (100=total damage to plant; 0=no damage to plant)
# Description: as §1, §2
# Lolium perenne (LOLPE) = conditions: Lolium perenne, post-emergence, 312 h, Application Rate 500 g/Ha; evaluated after 13 days; read-out: Control of LOLPE after post-emergence application (100=total damage to plant; 0=no damage to plant)
# Description: as §1, §2
# [3] = tested on: Chenopodium album (CHEAL); conditions: Application Rate 500 g/Ha, evaluated after 13 days; for pest or weed control at 500 g/ha: Chenopodium album, post-emergence, 312 h, read-out: Control of CHEAL after post-emergence application (100=total damage to plant; 0=no damage to plant)
# Description: as §1, §2
# [4] = tested on: Ipomoea hederacea (IPOHE); conditions: Application Rate 500 g/Ha, evaluated after 13 days; for pest or weed control at 500 g/ha: Ipomoea hederacea, post-emergence, 312 h, read-out: Control of IPOHE after post-emergence application (100=total damage to plant; 0=no damage to plant)
# Description: as §1, §2
# [5] = tested on: Digitaria sanguinalis (DIGSA); conditions: Application Rate 500 g/Ha, evaluated after 13 days; for pest or weed control at 500 g/ha: Digitaria sanguinalis, post-emergence, 312 h, read-out: Control of DIGSA after post-emergence application (100=total damage to plant; 0=no damage to plant)
# Description: as §1, §2
# Setaria faberi (SETFA) = conditions: Application Rate 500 g/Ha, evaluated after 13 days; for pest or weed control at 500 g/ha: Setaria faberi, post-emergence, 312 h, read-out: Control of SETFA after post-emergence application (100=total damage to plant; 0=no damage to plant)
# Description: as §1, §2
# [6] = tested on: Echinochloa crus-galli (ECHCG); conditions: Application Rate 500 g/Ha, evaluated after 13 days; for pest or weed control at 500 g/ha: Echinochloa crus-galli, post-emergence, 312 h, read-out: Control of ECHCG after post-emergence application (100=total damage to plant; 0=no damage to plant)
# Description: as §1, §2
Structure (SMILES),pest or weed control at 500 g/ha [1],pest or weed control at 500 g/ha (Eleusine indica (ELEIN)),pest or weed control at 500 g/ha [2],pest or weed control at 500 g/ha (Lolium perenne (LOLPE)),pest or weed control at 500 g/ha [3],pest or weed control at 500 g/ha [4],pest or weed control at 500 g/ha [5],pest or weed control at 500 g/ha (Setaria faberi (SETFA)),pest or weed control at 500 g/ha [6],Control of ELEIN after post-emergence application (100=total damage to plant; 0=no damage to plant) (Eleusine indica (ELEIN)),Control of EPHHL after post-emergence application (100=total damage to plant; 0=no damage to plant) [2],Control of CHEAL after post-emergence application (100=total damage to plant; 0=no damage to plant) [3],Control of IPOHE after post-emergence application (100=total damage to plant; 0=no damage to plant) [4],Control of DIGSA after post-emergence application (100=total damage to plant; 0=no damage to plant) [5],Control of SETFA after post-emergence application (100=total damage to plant; 0=no damage to plant) (Setaria faberi (SETFA)),Control of ECHCG after post-emergence application (100=total damage to plant; 0=no damage to plant) [6]
O=S(=O)([O-])CC(O)C[n+]1ccc(-c2ncccn2)cn1 (stereo not drawn) [Compound 1.028],100%,100%,80%,70%,90%,30%,90%,100%,100%,,,,,,,
O=S(=O)([O-])CC[n+]1ccc(-c2ccncc2)cn1 [Compound 1.007],100%,100%,40%,90%,100%,30%,100%,70%,80%,,,,,,,
"CC(C[n+]1ccc(-c2ncccn2)cn1)S(=O)(=O)[O-] (stereo not drawn) [Compound 1.026, 1-(4-pyrimidin-2-ylpyridazin-1-ium-1-yl)propane-2-sulfonate]",100%,100%,90%,80%,80%,70%,100%,100%,80%,,,,,,,
"O=S(=O)([O-])CC[n+]1ccc(-c2ncccn2)cn1 [Compound 1.001, 2-(4-pyrimidin-2-ylpyridazin-1-ium-1-yl)ethanesulfonate]",100%,100%,100%,70%,100%,100%,100%,100%,70%,,,,,,,
"O=C(O)CC[n+]1ccc(-c2ncccn2)cn1.[Br-] [Compound 1.021, 3-(4-pyrimidin-2-ylpyridazin-1-ium-1-yl)propanoic acid bromide]",100%,,,70%,,,,,,100,100,100,100,100,100,100
